Measured values taken from patent US12704520B2, “Melanogenesis detection method using FAM86A” (Research & Business Foundation Sungkyunkwan University, priority 2019, dated 2026).

Tests used:
[1] = test system: B16F10 cells; assay: Melanin content assay after FAM86A knockdown; type: cell-based, mouse; conditions: FAM86A knockdown without α-MSH, 48 hours, absorbance 405 nm
Protocol: The B16F10 cells cultured in Example 1 were seeded in a 6-well plate at 5×10^4 cells/well and cultured for 24 hours, and the knockdown of the FAM86A gene was induced using FAM86A shRNA represented by SEQ ID NO: 17. The cells were cultured in an incubator under conditions of 37° C. and 5% CO2 for 48 hours, the medium was removed, and then a cell lysis buffer was added at 200 μL per well to lyse the cells, followed by centrifugation at 4° C. and 12,000 rpm for 5 minutes and removal of a supernatant. The resulting pellet was treated with 100 μL of a 10% sodium dodecyl sulfate-1M NaOH solution, and heated for 30 minutes at 60° C. Afterward, the heated solution was maintained at room temperature to cool to 25° C., and absorbance at 405 nm was measured. Here, an amount of melanin production was calculated based on 100% of the amount of melanin in cells in which the FAM86A gene was not knocked down.

[2] = test system: B16F10 cells; assay: Melanin secretion assay after FAM86A knockdown; type: cell-based, mouse; conditions: FAM86A knockdown without α-MSH, 48 hours, absorbance 475 nm
Protocol: The B16F10 cells cultured in Example 1 were seeded in a 6-well plate at 5×10^4 cells/well and cultured for 24 hours, and the knockdown of the FAM86A gene was induced using FAM86A shRNA represented by SEQ ID NO: 17. The cells were cultured in an incubator under conditions of 37° C. and 5% CO2 for 48 hours, the medium was removed, and then a cell lysis buffer was added at 200 μL per well to lyse the cells, followed by centrifugation at 4° C. and 12,000 rpm for 5 minutes and removal of a supernatant. 100 μL of the resulting supernatant was dispensed into a 96-well plate, and subjected to absorbance measurement at 475 nm. Here, an amount of melanin secretion was calculated based on 100% of the amount of melanin in cells in which the FAM86A gene was not knocked down.

[3] = test system: cAMP; assay: cAMP ELISA after FAM86A knockdown; type: cell-based, mouse; conditions: B16F10 cells
Protocol: The B16F10 cells cultured in Example 1 were seeded in 6-well plates at a density of 5×10^4 cells per well, grown for 24 hours, and FAM86A shRNA represented by SEQ ID NO: 17 was used for FAM86A gene knockdown. Afterward, the cells were washed twice with PBS. Subsequently, PBS was completely removed, and then 200 μL of RIPA buffer, which is a tissue lysis and staining reagent, was added to each plate, followed by harvesting cells with a scraper. Afterward, a BCA assay was conducted to quantify proteins, and then the expression of cAMP protein was measured using a cAMP ELISA kit (ab65355).

[4] = test system: tyrosinase, TYRP-1, TYRP-2 and MITF genes; assay: Real-time PCR of melanogenesis-associated genes after FAM86A knockdown; type: cell-based, mouse; conditions: B16F10 cells, 48 hours
Protocol: The B16F10 cells cultured in Example 1 were seeded in 6-well plates at a density of 5×10^4 cells per well, grown for 24 hours, and FAM86A shRNA represented by SEQ ID NO: 17 was used for knockdown of the FAM86A gene. The cells were incubated in an incubator under conditions of 37° C. and 5% CO2 for 48 hours. After 48 hours, the medium was completely removed, the cells were decomposed with TRIzol and neutralized using BCP. The neutralized liquid was treated with isopropanol to precipitate mRNA. Subsequently, only the precipitated mRNA was collected using a centrifuge, and used for the experiment. Intracellular mRNA was synthesized into cDNA using a cDNA kit, and the expression levels of tyrosinase, TYRP-1, TYRP-2 and MITF genes, which are important for melanogenesis, were determined by PCR.

[5] = test system: FAM86 (NM_027446.2); assay: shRNA mean knockdown level of FAM86 (Table 1); type: cell-based; conditions: Mus musculus FAM86, pLKO.1 vector
[6] = test system: MAPK & MC1R signaling pathway proteins; assay: Western blotting of MAPK & MC1R signaling pathway proteins after FAM86A knockdown; type: cell-based, mouse; conditions: B16F10 cells, 48 hours
Protocol: The B16F10 cells cultured in Example 1 were seeded in 6-well plates at a density of 5×10^4 cells per well, grown for 24 hours, and FAM86A shRNA represented by SEQ ID NO: 17 was used to induce the knockdown of FAM86A gene. The cells were cultured in an incubator under conditions of 37° C. and 5% CO2 for 48 hours. Afterward, the cells were washed twice with PBS. After completely removing the PBS, 200 μL of RIPA buffer, which is a cell lysis and staining reagent, was added to the plate, and the cells were collected using a scraper. Afterward, a protein was quantified using a BCA assay, and electrophoresis was performed using 10% SDS-PAGE. The protein in the resulting PAGE gel was transferred onto a PVDF membrane, and the resulting PVDF membrane onto which the protein transfer had been completed was blocked in TBS-T (in 100 mM NaCl, 10 mM Tris, 0.1% (v/v) Tween-20, pH 7.4 (PBST) containing 3% BSA) at room temperature. Then, after washing three times for 10 minutes using TBS-T, a primary antibody in 3% BSA dissolved in TBS-T was treated for 1 hour, and sufficiently washed with TBS-T. In addition, a secondary antibody was treated for 1 hour, and washed three times with PBS-T for 10 minutes each. Subsequently, the amount and location of a specific protein were confirmed using an ECL detection system. The correction of the protein amount was performed by checking the amount of an actin protein by stripping the PVDF membrane, and confirming it to have the same amount as that of the protein of interest. The primary and secondary antibodies were purchased from Cell Signaling and Santa Cruz.

[7] = test system: B16F10 cells; assay: Fontana-Masson staining after FAM86A knockdown; type: cell-based, mouse; conditions: α-MSH 100 nM, 48 hours, microscope
Protocol: The B16F10 cells cultured in Example 1 were seeded in 6-well plates at a density of 5×10^4 cells per well, grown for 24 hours, and FAM86A shRNA represented by SEQ ID NO: 17 was used for knockdown of the FAM86A gene. The cells were treated with α-MSH at 100 nM. The resulting cells were cultured in an incubator under conditions of 37° C. and 5% CO2 for 48 hours, washed twice with PBS, and 1 mL of a 1% ammoniacal silver nitrate solution was added to each well, followed by heating a plate in a 60° C. dryer for 1 hour. Subsequently, the plate was washed three times with running water, and treated with 1 mL of a 0.2% gold chloride solution per well for 30 seconds. Afterward, the plate was washed twice with running water, treated with 1 mL of a 5% sodium thiosulfate solution per well, washed twice with running water, treated with 1 mL of a 0.5% neutral red solution per well for 2 minutes, and then washed with running water. The reaction result was confirmed under a microscope.

For “SEQ ID NO: 17: FAM86 shRNA (Mus musculus, NM_027446.2), pLKO.1 vector, target sequence SEQ ID NO: 27; used in the examples (DNA CCGGGTCTATGTAGCCTATACTATCCTCGAGGATAGTATAGGCTACATAGACTTTTTG)”, the “amount of melanin (production)” value [1] was “increased”, the “amount of melanin secretion” value [2] was “increased” and the cAMP expression [3] was “increased”. The “expression level of MITF gene” value [4] was “significantly increased”, the “expression level of TYRP-1 gene” value [4] was “significantly increased” and the “expression level of TYRP-2 gene” value [4] was “significantly increased”. The “expression level of tyrosinase gene” value [4] was “significantly increased”, the “Mean Knock down level” value [5] was 0.87 and the “expression level of MITF protein” value [6] was “significantly increased”. The “expression level of p-CREB protein” value [6] was “significantly increased”, the “expression level of p-PKA protein” value [6] was “significantly increased” and the p-ERK [6] was “decreased”. For the same substance, the p-JNK [6] was “increased”, the p-p38 [6] was “increased” and the “presence of melanin (Fontana-Masson staining)” value [7] was “more present”.
